This note sets out measurements from patent publication US8796201B2 (The Board of Trustees of the Leland Stanford Junior …, priority 2002, dated 2014).

One data set concerns the target T1, EPB2 (Hordeum vulgare, UniProt P25250).
T1 construct: made in house; host or cells: E. coli BL21, plasmid pMTB1 (pET28b), inclusion bodies solubilised in 7 M urea
The experiment in a line: Inhibition of EPB2 α2-gliadin digestion. Type of data set: biochemical, barley (Hordeum vulgare subsp. vulgare). The text has this:
The pH optimum of proEPB2 activation and α2-gliadin digestion is 2.4-3.5, which can therefore provide a treatment for Celiac Sprue consisting of oral administration of proEPB2.

Data set [1] has as its system rat brush border membrane (BBM) peptidases. Type of data set: in vitro ADME. The settings on record: kidney or brush border membranes. As to the method: To investigate the digestion of gluten, liquid chromatography coupled mass spectroscopy analysis (LC-MS-MS) was utilized to investigate the pathways and associated kinetics of hydrolysis of immunodominant gliadin peptides treated with rat BBM preparations. Because the rodent is an excellent small animal model for human intestinal structure and function, rat BBM was chosen as a suitable model system for these studies.
BBM fractions were prepared from rat small intestinal mucosa as described in Ahnen et al. (1982) J. Biol. Chem. 257, 12129-35. […] No proline aminopeptidase (EC 3.4.11.5) or prolyl endopeptidase activity (PEP, EC 3.4.21.26) activity was detectable (<5 μU/μg). Alkaline phosphatase and sucrase were used as control BBM enzymes with activities of 66 μU/μg and 350 μU/μg, respectively.
BBM fractions were partially purified from the small intestinal mucosa of adult female rats maintained on an ad libitum diet of wheat-based standard rodent chow. Total protein content was determined by a modified method of Lowry with BSA as a standard. Alkaline phosphatase activity was determined with nitrophenyl phosphate. Sucrase activity was measured using a coupled glucose assay. […] PEP activity was determined continuously with 0.4 mM Z-Gly-Pro-pNA in PBS:H2O:dioxane (8:1.2:0.8) at 30° C. One unit is the consumption of 1 μmol substrate per minute.
Proteolysis with the BBM preparation was investigated using the peptide (SEQ ID NO:1) […], a product of chymotryptic digestion of α-9 gliadin (Arentz-Hansen et al. (2000) J. Exp. Med. 191, 603-12). […] It was subjected to BBM digestion, followed by LC-MS-MS analysis. A standard 50 μl digestion mixture contained 100 μM of synthetic peptide, 10 μM tryptophan and Cbz-tryptophan as internal standards, and resuspended BBM preparations with a final protein content of 27 ng/μl and exogenous proteins, as indicated, in phosphate buffered saline. After incubation at 37° C. for the indicated time, the enzymes were inactivated by heating to 95° C. for 3 minutes. The reaction mixtures were analyzed by LC-MS (SpectraSystem, ThermoFinnigan) using a C18 reversed phase column (Vydac 218TP5215, 2.1×150 mm) with water:acetonitrile:formic acid (0.1%):trifluoroacetic acid (0.025%) as the mobile phase (flow: 0.2 ml/min) and a gradient of 10% acetonitrile for 3 minutes, 10-20% for 3 minutes, 20-25% for 21 minutes followed by a 95% wash. Peptide fragments in the mass range of m/z=300-2000 were detected by electrospray ionization mass spectroscopy using a LCQ ion trap and their identities were confirmed by MSMS fragmentation patterns.
BBM fractions were prepared from rat small intestinal mucosa.

For data set [2], the system named is gastric and pancreatic proteases. The experiment in a line: Gastric and pancreatic protease digestion of recombinant α2-gliadin. The settings on record: extended reaction times. It is filed as in vitro ADME. The text has this:
[…]. […] No long intermediate is observed to accumulate.

The test system of data set [3] is human brush border membrane (BBM). It is filed as in vitro ADME. The settings on record: kidney or brush border membranes, 100 μM. The text has this: (SEQ ID NO:12) […]
Data set [4] is described as follows: In vivo perfusion of peptides through rat jejunum. As to conditions: 15-20 cm jejunum segment, residence time 20 min. As to the method:
FIG. 5. In vivo brush border membrane digestion of peptides.
In Vivo Endopeptidase Activity. An adult (female or male) rat was anesthetized and maintained at 36-37° C. during the entire surgical procedure. The peritoneal cavity was opened, and a small incision was made at the beginning and the end of a 15-20 cm jejunum segment. Polyethylene catheters were inserted and secured into the two ends. The input catheter was connected with a pump-driven syringe filled with a solution. The jejunum segment was perfused initially with PBS buffer to remove any residual debris at a flow rate of 0.4 ml/min. Purified peptide solutions (peptide concentration ranges from 25-100 μM) were then perfused at 0.4 ml/min through the jejunum segment with a 10-40 min residence time. In the case of a co-perfusion, the input catheter is connected with two simultaneous syringes, one with a peptide solution and the other with the prolyl endopeptidase solution (concentration ranges from 50-500 μU/μl). Fluid from the output catheter was collected into small centrifuge tubes in dry ice for subsequent analysis. The collected digestive products were analyzed by HPLC on a C18 column.

The nature of data set [5]: resuspended rat brush border membrane (BBM) preparations in phosphate buffered saline. As to conditions: 37° C.
Another data set concerns trypsin. The experiment in a line: trypsin.
Data set [6] has as its system rabbit lung DCP (Cortex Biochemicals, CA). The experiment in a line: BBM with exogenous rabbit lung DCP in phosphate buffered saline:Tris buffered saline=9:1. As to conditions: rat, up to overnight.
The subject of the next data set is chymotrypsin. As to the kind of experiment: chymotrypsin.
For a further data set, the system named is elastase. As to the kind of experiment: elastase at a high (non-physiological) concentration of 100 ng/μl.
Data set [7] is described as follows: BBM with captopril in phosphate buffered saline:Tris buffered saline=9:1. The settings on record: rat, up to overnight.
Data set [8] can be described thus: rat brush border membrane (BBM) protein preparations, 27 ng/μl, in phosphate buffered saline. The settings on record: 37° C, up to overnight.
Data set [9] concerns carboxypeptidase A (C-0261, Sigma) and/or leucine aminopeptidase (L-5006, Sigma). The experiment in a line: 10 μg/ml carboxypeptidase A and/or 5.9 μg/ml leucine aminopeptidase. The settings on record: 37° C., up to 160 min.
In data set [10] the test system is prolyl endopeptidase (PEP, specific activity 28 μU/pg) from Flavobacterium meningosepticum (US Biological, MA). The experiment in a line: 27 ng/μl brush border membranes with exogenous prolyl endopeptidase from Flavobacterium meningosepticum. As to conditions: rat, up to one hour.
The subject of data set [11] is DPP IV from Aspergillus fumigatus. As to the kind of experiment: rat BBM with exogenous DPP IV from Aspergillus fumigatus (0.28 μU DPP IV/ng BBM protein). The settings on record: 37° C., up to four hours.

Entries after “also recorded” stand apart in the source; their conditions may differ. Where no end group is shown, it is not given here. A value given as a limit tells only on which side of the number the result lay.

T1 sequence (P25250 134-373): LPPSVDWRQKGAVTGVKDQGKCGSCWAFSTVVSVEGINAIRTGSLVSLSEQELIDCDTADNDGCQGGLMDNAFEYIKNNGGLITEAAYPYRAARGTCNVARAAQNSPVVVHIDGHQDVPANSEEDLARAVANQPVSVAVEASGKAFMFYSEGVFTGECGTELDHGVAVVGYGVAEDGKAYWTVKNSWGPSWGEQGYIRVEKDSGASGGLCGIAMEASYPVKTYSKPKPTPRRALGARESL

Consider `CC(=O)N[C@@H](CC(C)C)C(=O)N[C@@H](CC(C)C)C(=O)N[C@H](C=O)CCCNC(=N)N` [leupeptin], for which, at EPB2, the “effect on α2-gliadin digestion by EPB2” value is recorded as “inhibits this activity”.
“LQLQPFPQPQLPYPQPQLPYPQPQLPYPQPQPF [33-mer]” returned a half-life of digestion in data set [1] above 20 h. Besides, the “stability toward gastric and pancreatic proteases” value in [2] is “remained intact despite prolonged exposure to proteases”. For the same compound, the “Amount of Peptides Digested after 15 hours” value in data set [3] was below 20%. For the same compound, the “stability in the perfusion experiment” value in data set [4] is reported as “most of the 33-mer gliadin peptide remained intact”.
Regarding PQPQLPYPQPQLPY, the cleaved bond result in data set [5] is given as “P-Y, first_seen”; with elastase it was “Q-L”. Further, the not cleaved entry is “No proteolysis was detected” with trypsin, “No proteolysis was detected” in the data set with chymotrypsin and “no observed N-terminal processing” in data set [8]. Further, the fragment found entry in [6], in data set [7] and in data set [9] was “PQPQLPYPQPQLP” in each case.
In the case of QLQPFPQPQLPY, in data set [10], the cleaved bond result is given as “P-Q, major”. Moreover, the fragment found result is “QLQPFPQPQLP; also recorded: QPFPQPQLP” in [9] and “QLQPFPQPQLP” in data set [11].
